# Results reported in US20140057877A1, “Therapeutic polyamine compositions and their synthesis” (priority 2002, published 2014).
# Where “and” joins values, the source holds several entries; their conditions need not be identical. Identical values can stand only once. Like-named read-outs stand apart in the source and are kept apart here.
# Tests used:
# [1] = test system: E. coli (GM 7359) alkA tag E. coli mutant; test: Bacterial survival, toxin streptozotocin and antidotes; conditions: 60 minutes
# Procedure: (§2) Bacteria were inoculated and cultured in nutrient agar for eighteen hours, using a shaking incubator at 140 r.p.m and 35° C. Medium contained 10 mM HEPES buffer at pH 7. Cells were centrifuged twice in Sorval RC-5 centrifuge 12,000 r.pm.×15 minutes at 4° C. and washed twice in 10 uM HEPES buffer. The resuspended cells were counted using a Hemocrit and diluted to a level of 5×10^1 cells per ml in 10 μM HEPES. The cells, the following toxins; methyl viologen (paraquat), methyl viologen (MPP^+), rotenone, daizoxide, streptozotocin and alloxan, and antidotes were added, reaching final volumes of 1 ml in Eppendorf tubes and placed on a rotator at room temperature. 10 μM diethylenetriaminepentaacetic acid was added to the samples to terminate the reactions at the specified times of either twenty or sixty minutes. 300 μL of cells were plated on Petri plates containing nutrient agar and incubated at 35° C. overnight. Colonies were counted after 20 hours. Percentage survival as compared with culture controls is calculated from the means of triplicates in each experimental group.
# [2] = Oil water partition coefficients (octanol/water, HPLC); type: physicochemical; conditions: 1:1 octanol/water, shaken 12 hours, HPLC
# Procedure: Partition coefficients were determined by dissolving the compound in a 1:1 mixture of octanol/water and shaking the solution for 12 hours. HPLC was used to determine the partition coefficient. The reported values are the log of the octanol/water partition
# [3] = test system: E. coli (GM 7359) alkA tag E. coli mutant; conditions: 60 minutes
# Procedure: as §2
# S. aureus (ATCC 29213) [4] = test: Bacterial survival, toxin diazoxide and antidotes; type: cell-based; conditions: 60 minutes
# Procedure: (§1) Medium contained 10 mM HEPES buffer at pH 7. […] Colonies were counted after 20 hours.
# E. coli (ATCC 35150) = type: cell-based
# Procedure: as §1
# M. Luteus (ATCC 499732) = test: Bacterial survival, toxin diazoxide and antidotes
# Procedure: as §2
# [5] = pKa by potentiometric titration; type: physicochemical; conditions: aqueous solution, ionic strength 0.10, 25° C.
# Procedure: PKa's were determined by standard potentiometric titration methods in aqueous solution with an ionic strength of 0.10 at 25° C. Values are reported as log K values of the equilibrium constant.
# S. aureus (ATCC 29213) [6] = test: Bacterial survival, toxin MPP^+ and antidotes; conditions: 60 minutes
# Procedure: as §2
# [7] = test system: E. coli (GM 7359) alkA tag E. coli mutant; conditions: 60 minutes; remark: listed apart in the source
# Procedure: as §2
# [8] = 0.15 mM Diazoxide + 5 uM antidote
# [9] = 0.2 mM Diazoxide + 12.5 uM antidote, T60
# [10] = 0.2 mM Diazoxide + 100 uM antidote, T60
# [11] = substance alone 100 uM, T20 (20 minutes)
# [12] = substance alone 100 uM, T60 (60 minutes)
# [13] = 0.2 mM Diazoxide + 1 uM antidote, T60
# [14] = 0.2 mM Diazoxide + 5 uM antidote, T60
# [15] = 0.2 mM Diazoxide + 10 uM antidote, T60
# [16] = 0.2 mM Diazoxide + 200 uM antidote, T60
# [17] = substance alone 200 uM, T20 (20 minutes)
# [18] = substance alone 200 uM, T60 (60 minutes)
# [19] = 0.2 mM Diazoxide + 50 uM antidote, T20
# [20] = 100 uM Streptozotocin + 5 uM antidote
# [21] = 100 uM Rotenone + 2.5 uM antidote
# [22] = 100 uM Rotenone + 5 uM antidote
# [23] = 0.2 mM Diazoxide + 1 uM antidote, T20
# [24] = 0.2 mM Diazoxide + 2.5 uM antidote, T20
# [25] = 0.2 mM Diazoxide + 2.5 uM antidote, T60
molecule,measurement,setting,value
"CN(N=O)C(=O)N[C@H]1C(O)O[C@H](CO)[C@@H](O)[C@@H]1O (stereo partly drawn) [Streptozotocin, N-(methylnitrosocarbamoyl)-Dglucosamine, reference compound]",Mean % Survival,[1]; substance alone 100 uM,57%
"CNCCNCCCNCCNC [2,3,2-methylated on N1/N4, N,N′″-dimethyl 2,3,2-tetramine]",Log Partition Coefficient Octanol:Water,[2],0.4
"[2-(bicyclo[3.3.1]non-3-ylamino)ethyl](3-{2-(bicyclo[3.3.1]non-3-ylamino)ethyl]amino}propyl)amine [2,3,2-tetramine adamantane]",Mean % Survival,[3]; 2 mM Alloxan + 1 uM antidote,51%
same,Mean % Survival,[3]; 2 mM Alloxan + 100 uM antidote,69%
same,Mean % Survival,[3]; substance alone 100 uM,100%
NCCCNCCCCNCCCN [Spermine],Mean % Survival,S. aureus (ATCC 29213) [4]; [8],71%
same,Mean % Survival,S. aureus (ATCC 29213) [4]; substance alone 5 uM,99%
same,Mean % Survival,E. coli (ATCC 35150),100% and 96% and 60%
"O=C1NC(=O)C(=O)C(=O)N1 [Alloxan, reference compound]",Mean % Survival,[3]; substance alone 2 mM,20%
"NCCSCCCSCCN [2,3,2-sulfur, 2-[3-(2-aminoethylthio)propylthio]ethylamine]",Mean % Survival,M. Luteus (ATCC 499732); [9],32%
same,Mean % Survival,M. Luteus (ATCC 499732); [10],67%
same,Mean % Survival,M. Luteus (ATCC 499732); [11],100%
same,Mean % Survival,M. Luteus (ATCC 499732); [12],100%
"CNCCN(C)CCCN(C)CCNC [2,3,2-tetramethyl, N,N′,N″,N′″-tetramethyl 2,3,2-tetramine]",pKa(1),[5],10.2
same,pKa(2),[5],9.4
same,pKa(3),[5],6.1
same,pKa(4),[5],2.9
"CN1CCCN(C)CCN(C)CCCN(C)CC1 [cyclam-methylated, 1,4,8,11-tetraaza-1,4,8,11-tetramethylcyclotetradecane]",pKa,[5]; read-out: pKa(1),9.7
same,pKa,[5]; read-out: pKa(2),9.3
same,pKa,[5]; read-out: pKa(3),3.1
same,pKa,[5]; read-out: pKa(4),2.6
"Vanadyl (1,4,8,11-tetraaza-1,4,8,11-tetrabicyclo[3.3.1]non-3-ylcyclotetradecane)(Cl)2 [Vanadium Cyclam Adamantane]",Mean % Survival,M. Luteus (ATCC 499732); [13],100%
same,Mean % Survival,M. Luteus (ATCC 499732); [14],100%
same,Mean % Survival,M. Luteus (ATCC 499732); [15],100%
same,Mean % Survival,"M. Luteus (ATCC 499732); 0.2 mM Diazoxide + 50 uM antidote, T60",100%
same,Mean % Survival,M. Luteus (ATCC 499732); [16],100%
same,Mean % Survival,M. Luteus (ATCC 499732); [17],100%
same,Mean % Survival,M. Luteus (ATCC 499732); [18],100%
"1,4,8,11-tetraaza-1,4,8,11-tetrabicyclo[3.3.1]non-3-ylcyclotetradecane [Cyclam Adamantane]",Mean % Survival,[3]; 2 mM Alloxan + 2.5 uM antidote,100%
same,Mean % Survival,[3]; 2 mM Alloxan + 10 uM antidote,100%
same,Mean % Survival,[3]; substance alone 10 uM,100%
same,Mean % Survival,"M. Luteus (ATCC 499732); 0.2 mM Diazoxide + 12.5 uM antidote, T20",100%
same,Mean % Survival,M. Luteus (ATCC 499732); [9],100%
same,Mean % Survival,M. Luteus (ATCC 499732); [19],100%
same,Mean % Survival,"M. Luteus (ATCC 499732); 0.2 mM Diazoxide + 100 uM antidote, T20",100%
same,Mean % Survival,M. Luteus (ATCC 499732); [10],100%
same,Mean % Survival,M. Luteus (ATCC 499732); [11],100%
same,Mean % Survival,M. Luteus (ATCC 499732); [12],100%
same,Mean % Survival,S. aureus (ATCC 29213) [6]; 0.2 mM MPP^+ + 1 uM antidote,100%
same,Mean % Survival,S. aureus (ATCC 29213) [6]; 0.2 mM MPP^+ + 2.5 uM antidote,100%
same,Mean % Survival,S. aureus (ATCC 29213) [6]; 0.2 mM MPP^+ + 5.0 uM antidote,100%
same,Mean % Survival,S. aureus (ATCC 29213) [6]; 0.2 mM MPP^+ + 7.5 uM antidote,100%
same,Mean % Survival,S. aureus (ATCC 29213) [6]; substance alone 30 uM,100%
same,Mean % Survival,[1]; 100 uM Streptozotocin + 1 uM antidote,93%
same,Mean % Survival,[1]; [20],100%
same,Mean % Survival,[1]; 100 uM Streptozotocin + 12.5 uM antidote,100%
same,Mean % Survival,[1]; substance alone 12.5 uM,100%
same,Mean % Survival,[7]; [21],97%
same,Mean % Survival,[7]; [22],89%
same,Mean % Survival,[7]; 100 uM Rotenone + 12.5 uM antidote,100%
same,Mean % Survival,[7]; substance alone 25 uM,100%
"NCCCCNCCCN [Spermidine, reference compound]",Mean % Survival,M. Luteus (ATCC 499732); [23],100%
same,Mean % Survival,M. Luteus (ATCC 499732); [13],96%
same,Mean % Survival,M. Luteus (ATCC 499732); [24],100%
same,Mean % Survival,M. Luteus (ATCC 499732); [25],100%
same,Mean % Survival,"M. Luteus (ATCC 499732); 0.2 mM Diazoxide + 200 uM antidote, T20",100%
same,Mean % Survival,M. Luteus (ATCC 499732); [17],100%
same,Mean % Survival,M. Luteus (ATCC 499732); [18],100%
same,Mean % Survival,[1]; [20],87%
same,Mean % Survival,[1]; substance alone 5 uM,97%
"C=C(C)[C@H]1Cc2c(ccc3c2O[C@@H]2COc4cc(OC)c(OC)cc4[C@@H]2C3=O)O1 [Rotenone, reference compound]",Mean % Survival,[7]; substance alone 100 uM,60%
"(2-piperidylethyl)-{3-[(2-piperidylethyl)amino]propyl}amine [2,3,2-piperidine]",Mean % Survival,S. aureus (ATCC 29213) [4]; 0.15 mM Diazoxide + 2.5 uM antidote,100%
same,Mean % Survival,S. aureus (ATCC 29213) [4]; [8],91%
same,Mean % Survival,S. aureus (ATCC 29213) [4]; 0.15 mM Diazoxide + 10 uM antidote,92%
same,Mean % Survival,S. aureus (ATCC 29213) [4]; substance alone 10 uM,100%
same,pKa(1),[5],9.9
same,pKa(2),[5],9.3
same,pKa(3),[5],6.4
same,pKa(4),[5],3.6
same,Mean % Survival,M. Luteus (ATCC 499732); [23],81%
same,Mean % Survival,M. Luteus (ATCC 499732); [24],81%
same,Mean % Survival,M. Luteus (ATCC 499732); [25],41%
same,Mean % Survival,"M. Luteus (ATCC 499732); 0.2 mM Diazoxide + 5 uM antidote, T20",100%
same,Mean % Survival,M. Luteus (ATCC 499732); [14],100%
same,Mean % Survival,"M. Luteus (ATCC 499732); 0.2 mM Diazoxide + 10 uM antidote, T20",100%
same,Mean % Survival,M. Luteus (ATCC 499732); [15],100%
same,Mean % Survival,"M. Luteus (ATCC 499732); 0.2 mM Diazoxide + 20 uM antidote, T20",100%
same,Mean % Survival,"M. Luteus (ATCC 499732); 0.2 mM Diazoxide + 20 uM antidote, T60",100%
same,Mean % Survival,M. Luteus (ATCC 499732); [19],100%
same,Mean % Survival,"M. Luteus (ATCC 499732); substance alone 50 uM, T20 (20 minutes)",100%
same,Mean % Survival,"M. Luteus (ATCC 499732); substance alone 50 uM, T60 (60 minutes)",100%
same,Mean % Survival,S. aureus (ATCC 29213) [6]; 0.25 mM MPP^+ + 1uM antidote,54%
same,Mean % Survival,S. aureus (ATCC 29213) [6]; 0.25 mM MPP^+ + 2uM antidote,54%
same,Mean % Survival,S. aureus (ATCC 29213) [6]; 0.25 mM MPP^+ + 5uM antidote,69%
same,Mean % Survival,S. aureus (ATCC 29213) [6]; 0.25 mM MPP^+ + 7uM antidote,100%
same,Mean % Survival,S. aureus (ATCC 29213) [6]; substance alone 7.5 uM,100%
same,Mean % Survival,[1]; 100 uM Streptozotocin + 2.5 uM antidote,70%
same,Mean % Survival,[1]; [20],100%
same,Mean % Survival,[1]; 100 uM Streptozotocin + 20 uM antidote,100%
same,Mean % Survival,[1]; substance alone 20 uM,100%
same,Mean % Survival,[7]; [21],100%
same,Mean % Survival,[7]; [22],100%
same,Mean % Survival,[7]; 100 uM Rotenone + 20 uM antidote,100%
same,Mean % Survival,[7]; 100 uM Rotenone + 50 uM antidote,100%
same,Mean % Survival,[7]; substance alone 50 uM,100%
"1,4,8,11-tetraaza-1,4,8,11-tetra(2-piperidylethyl)cyclotetradecane [cyclam-piperidine]",Log Partition Coefficient Octanol:Water,[2],0.7
"C[n+]1ccc(-c2ccccc2)cc1 [MPP^+, reference compound]",Mean % Survival,S. aureus (ATCC 29213) [6]; substance alone 0.1 mM,31%
same,Mean % Survival,S. aureus (ATCC 29213) [6]; substance alone 0.15 mM,15%
same,Mean % Survival,S. aureus (ATCC 29213) [6]; substance alone 0.2 mM,6%
same,Mean % Survival,S. aureus (ATCC 29213) [6]; substance alone 0.25 mM,3%
"CC1=NS(=O)(=O)c2cc(Cl)ccc2N1 [Diazoxide, reference compound]",Mean % Survival,S. aureus (ATCC 29213) [4]; substance alone 0.15 mM,25%
same,Mean % Survival,"M. Luteus (ATCC 499732); substance alone 0.2 mM, T20 (20 minutes)",22%
same,Mean % Survival,"M. Luteus (ATCC 499732); substance alone 0.2 mM, T60 (60 minutes)",1%
"N[C@@H](Cc1c[nH]cn1)C(=O)O [Histidine, reference compound]",Mean % Survival,S. aureus (ATCC 29213) [4]; 0.15 mM Diazoxide + 500 uM antidote,58%
same,Mean % Survival,S. aureus (ATCC 29213) [4]; substance alone 0.5 mM,100%
same,Mean % Survival,M. Luteus (ATCC 499732); [16],54%
same,Mean % Survival,M. Luteus (ATCC 499732); [17],100%
same,Mean % Survival,M. Luteus (ATCC 499732); [18],100%
same,Mean % Survival,E. coli (ATCC 35150),30%
same,Mean % Survival,"E. coli (ATCC 35150); 0.5 mM Paraquat + 1.0 mM antidote, 60 minutes",37%
same,Mean % Survival,"E. coli (ATCC 35150); substance alone 0.5 mM, 60 minutes",100%
same,Mean % Survival,"E. coli (ATCC 35150); substance alone 1 mM, 60 minutes",100%
same,Mean % Survival,S. aureus (ATCC 29213) [6]; 0.15 mM MPP^+ + 0.5 mM antidote,64%
same,Mean % Survival,S. aureus (ATCC 29213) [6]; substance alone 0.5 mM,90%
